Among the data in ChEMBL document CHEMBL3351499, “'Click' glycosylation of peptides through cysteine propargylation and CuAAC” (Bioorg Med Chem, 2014) are IC50 values, retold here.

Residues, ends and D or L forms follow the SMILES beside them. *: point of attachment. X3 = OC[C@H]1O[C@H](OCCn2cc(C*)nn2)[C@@H](O)[C@@H](O)[C@@H]1O; X4 = OC[C@H]1O[C@@H](OCCn2cc(C*)nn2)[C@H](O)[C@@H](O)[C@@H]1O; X6 = O[C@@H]1[C@@H](O)[C@@H](OCCn2cc(C*)nn2)O[C@H](CF)[C@H]1O; X1 = OC[C@H]1O[C@@H](OCCn2cc(C*)nn2)[C@H](O)[C@@H](O)[C@H]1O; X2 = O[C@@H]1[C@@H](O)[C@H](OCCn2cc(C*)nn2)O[C@H](CF)[C@H]1O; X5 = O[C@@H]1[C@H](O)[C@@H](OCCn2cc(C*)nn2)O[C@H](CF)[C@H]1O

This test can be described thus: Antiplatelet activity in citrated human platelet rich plasma assessed as inhibition of ADP-induced platelet aggregation incubated for 10 mins at 37 degC by light transmission aggregometry. Type of test: functional.
On to `NC(N)=NCCC[C@H](N)C(=O)NCC(=O)N[C@@H](CC(=O)O)C(=O)O`, for which the IC50 (usually the concentration at which inhibition is half-maximal) is 319 µM.
For `CC(C)[C@@H]1NC(=O)[C@H](Cc2ccccc2)NC(=O)[C@H](CC(=O)O)NC(=O)CNC(=O)[C@H](CCCNC(=N)N)NC1=O`, the IC50 came out at 72 µM.
Turning to `N=C(N)NCCC[C@@H]1NC(=O)[C@H](CSCc2cn(CCO[C@@H]3O[C@H](CF)[C@@H](O)[C@H](O)[C@H]3O)nn2)NC(=O)[C@H](Cc2ccccc2)NC(=O)[C@H](CC(=O)O)NC(=O)CNC1=O`, the half-inhibitory concentration (IC50) stood at 148 µM.
As for `N=C(N)NCCC[C@H](N)C(=O)NCC(=O)N[C@@H](CC(=O)O)C(=O)N[C@@H](CSCc1cn(C[C@H]2O[C@H](O[C@H]3O[C@H](Cn4cc(CSC[C@H](NC(=O)[C@H](CC(=O)O)NC(=O)CNC(=O)[C@@H](N)CCCNC(=N)N)C(=O)O)nn4)[C@@H](O)[C@H](O)[C@H]3O)[C@@H](O)[C@@H](O)[C@@H]2O)nn1)C(=O)O`, the half-maximal inhibitory concentration (IC50) stood at 76.5 µM.
In the case of `N=C(N)NCCC[C@H](N)C(=O)NCC(=O)N[C@@H](CC(=O)O)C(=O)N[C@@H](CSCc1cn(CCO[C@@H]2O[C@H](CO)[C@H](O)[C@H](O)[C@H]2O)nn1)C(=O)O` (H-RGDC(X1)-OH), the IC50 was 23 µM.
In the case of `N=C(N)NCCC[C@H](N)C(=O)NCC(=O)N[C@@H](CC(=O)O)C(=O)N[C@@H](CSCc1cn(CCO[C@@H]2O[C@H](CF)[C@@H](O)[C@H](O)[C@H]2O)nn1)C(=O)O` (H-RGDC(X2)-OH), the IC50 worked out at 66 µM.
In the case of `N=C(N)NCCC[C@H](N)C(=O)NCC(=O)N[C@@H](CC(=O)O)C(=O)N[C@@H](CSCc1cn(CCO[C@H]2O[C@H](CO)[C@@H](O)[C@H](O)[C@@H]2O)nn1)C(=O)O` (H-RGDC(X3)-OH) it was 47.6 µM; in that of `N=C(N)NCCC[C@H](N)C(=O)NCC(=O)N[C@@H](CC(=O)O)C(=O)N[C@@H](CSCc1cn(CCO[C@@H]2O[C@H](CO)[C@@H](O)[C@H](O)[C@H]2O)nn1)C(=O)O` (H-RGDC(X4)-OH), 44 µM; in that of `N=C(N)NCCC[C@H](N)C(=O)NCC(=O)N[C@@H](CC(=O)O)C(=O)N[C@@H](CSCc1cn(CCO[C@H]2O[C@H](CF)[C@@H](O)[C@H](O)[C@@H]2O)nn1)C(=O)O` (H-RGDC(X5)-OH), 23.5 µM.
Take `N=C(N)NCCC[C@H](N)C(=O)NCC(=O)N[C@@H](CC(=O)O)C(=O)N[C@@H](CSCc1cn(CCO[C@H]2O[C@H](CF)[C@@H](O)[C@H](O)[C@H]2O)nn1)C(=O)O` (H-RGDC(X6)-OH): the IC50 amounted to 26 µM.
With `NC(N)=NCCC[C@H](N)C(=O)NCC(=O)N[C@@H](CC(=O)O)C(=O)N[C@@H](CS)C(=O)O` (H-RGDC-OH), the concentration for half-maximal inhibition (IC50) was 322 µM.
Take `N=C(N)NCCC[C@@H]1NC(=O)[C@H](CS)NC(=O)[C@H](Cc2ccccc2)NC(=O)[C@H](CC(=O)O)NC(=O)CNC1=O` (cyclo(RGDFC)): the IC50 amounted to 65 µM.
